Results: patent US11731965B2, “Tetrahydroprotoberberine compound, preparation method therefor and uses thereof, and pharmaceutical composition” (SHANGHAI INSTITUTE OF MATERIA MEDICA, CHINESE ACADEMY OF …, priority 2017, dated 2023)
Counter-ions that a name gives are not always drawn.

Columns and labels:
[1] = target: T1, human recombinant 5-HT1A receptor (Homo sapiens, UniProt P08908); assay: 5-HT1A agonistic activity test (LANCE cAMP, inhibition of cAMP production in HEK293 cells); format: cell-based; conditions: HEK293 cells expressing human recombinant 5-HT1A receptor; test concentration 0.1 nM to 10000 nM; read-out: 5-HT1A Agonistic Activity (EC50, nmol/L)
T1 construct: expressed in transfected cells; host or cells: HEK293
T1 sequence (P08908 1-422): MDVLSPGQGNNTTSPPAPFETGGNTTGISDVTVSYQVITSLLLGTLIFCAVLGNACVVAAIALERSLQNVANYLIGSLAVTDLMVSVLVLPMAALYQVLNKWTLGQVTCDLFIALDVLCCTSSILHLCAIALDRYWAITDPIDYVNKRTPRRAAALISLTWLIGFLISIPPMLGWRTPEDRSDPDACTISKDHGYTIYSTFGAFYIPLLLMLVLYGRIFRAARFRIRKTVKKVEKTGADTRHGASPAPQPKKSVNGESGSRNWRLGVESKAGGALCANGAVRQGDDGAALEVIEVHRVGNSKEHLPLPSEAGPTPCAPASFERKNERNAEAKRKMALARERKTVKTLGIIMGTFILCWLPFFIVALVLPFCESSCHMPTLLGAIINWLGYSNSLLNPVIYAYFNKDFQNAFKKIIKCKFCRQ
Experimental: • 3) 5-HT1A agonistic activity test
LANCE™ cAMP 384 Kit (PerkinElmer, USA) was used to test the agonistic effect of the compound on 5-HT1A receptor using the HEK293 cells expressing human recombinant 5-HT1A receptor. The 5-HT1A agonistic effect of the compound was evaluated by testing the inhibitory effect of the compound on cAMP production in HEK293 cells. The cAMP concentration test was performed according to the method described in the kit instructions. The test concentration of the compound was 0.1 nM to 10000 nM. 8-OH-DPAT was used as a positive control. The EC50 was calculated by Excelfit software.

[2] = system: PCP-induced high spontaneous activity in mice; assay: PCP-induced high spontaneous activity test in mice; format: in vivo, Male ICR mice; conditions: dose by gavage that significantly reduces PCP (7 mg/kg ip) induced high spontaneous activity of mice vs model group
Experimental: PCP (phencylidine) was dissolved in physiological saline to prepare a 7 mg/kg solution. The test compound was formulated with a 0.5% CMC-Na solution to a solution with suitable concentration, ready-to-use. Male ICR mice were 18-22 g. Mice were randomly divided into a solvent control group, a model control group, a positive control group, and each test drug group during the test. There were 8 mice in each group. Mice in each group were given each test drug by gavage. 45 minutes after the test drug was administered, mice were injected with a PCP (7 mg/kg) solution intraperitoneally. The spontaneous, open field video analysis system was used to record the mouse movement trajectory within 45 min after administration of test drug or saline, and then the mouse movement trajectory within 75 min after PCP administration. Spontaneous, open field video analysis system was used to analyze the mouse's movement trajectory, and the total distance of the movement of the mice in each group was counted. The result was expressed as mean±SD. Results were analyzed by one-way analysis of variance.

[3] = target: T2, human recombinant D1 receptor (Homo sapiens, UniProt P21728); assay: D1 antagonistic activity test (LANCE cAMP, antagonism of dopamine-induced cAMP production in HEK293 cells); format: cell-based; conditions: HEK293 cells expressing human recombinant D1 receptor; test concentration 0.1 nM to 10000 nM; read-out: D1 Antagonistic Activity (IC50, nmol/L)
T2 construct: expressed in transfected cells; host or cells: HEK293
Experimental: • 1) D1 antagonistic activity test
The D1 antagonism of the compound was evaluated by testing the antagonistic action of the compounds against dopamine on the induction of cAMP production in HEK293 cells. The cAMP concentration test was performed according to the method described in the kit instructions. The test concentration of the compound was 0.1 nM to 10000 nM. SCH23390 was used as a positive control. The IC50 was calculated by Excelfit software.

[4] = target: T3, human recombinant D2 receptor (Homo sapiens, UniProt P14416); assay: D2 antagonistic activity test (LANCE cAMP, antagonism of dopamine inhibition of cAMP production in HEK293 cells); format: cell-based; conditions: HEK293 cells expressing human recombinant D2 receptor; test concentration 0.1 nM to 10000 nM; read-out: D2 Antagonistic Activity (IC50, nmol/L)
T3 construct: expressed in transfected cells; host or cells: HEK293
Experimental: LANCE™ cAMP 384 Kit (PerkinElmer, USA) was used to test the antagonism of the compound against the D1 receptor using the HEK293 cells expressing human recombinant D1 receptor. The D1 antagonism of the compound was evaluated by testing the antagonistic action of the compounds against dopamine on the induction of cAMP production in HEK293 cells. The cAMP concentration test was performed according to the method described in the kit instructions. The test concentration of the compound was 0.1 nM to 10000 nM. SCH23390 was used as a positive control. The IC50 was calculated by Excelfit software. The test results of some compounds were shown in Table 1. • 2) D2 antagonistic activity test LANCE™ cAMP 384 Kit (PerkinElmer, USA) was used to test the antagonism of the compound against the D2 receptor using the HEK293 cells expressing human recombinant D2 receptor. The D2 antagonism of the compound was evaluated by testing the antagonistic action of the compounds against dopamine on the inhibition of cAMP production in HEK293 cells. The cAMP concentration test was performed according to the method described in the kit instructions. The test concentration of the compound was 0.1 nM to 10000 nM. Risperidone was used as a positive control. The IC50 was calculated by Excelfit software. The test results of some compounds were shown in Table 1 (ND means the test was not performed).

T2 sequence (P21728 whole entry): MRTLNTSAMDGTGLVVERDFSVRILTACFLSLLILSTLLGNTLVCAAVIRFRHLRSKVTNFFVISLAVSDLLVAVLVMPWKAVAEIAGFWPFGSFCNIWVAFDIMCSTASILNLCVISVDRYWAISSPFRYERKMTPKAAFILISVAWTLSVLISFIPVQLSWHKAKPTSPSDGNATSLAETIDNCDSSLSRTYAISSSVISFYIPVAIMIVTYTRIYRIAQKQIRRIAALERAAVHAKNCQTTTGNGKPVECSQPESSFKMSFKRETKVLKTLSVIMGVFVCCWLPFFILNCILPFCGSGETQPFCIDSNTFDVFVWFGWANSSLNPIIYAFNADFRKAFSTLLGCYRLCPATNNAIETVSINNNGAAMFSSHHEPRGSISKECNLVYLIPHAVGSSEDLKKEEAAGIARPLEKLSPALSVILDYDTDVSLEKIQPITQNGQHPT
T3 sequence (P14416 whole entry): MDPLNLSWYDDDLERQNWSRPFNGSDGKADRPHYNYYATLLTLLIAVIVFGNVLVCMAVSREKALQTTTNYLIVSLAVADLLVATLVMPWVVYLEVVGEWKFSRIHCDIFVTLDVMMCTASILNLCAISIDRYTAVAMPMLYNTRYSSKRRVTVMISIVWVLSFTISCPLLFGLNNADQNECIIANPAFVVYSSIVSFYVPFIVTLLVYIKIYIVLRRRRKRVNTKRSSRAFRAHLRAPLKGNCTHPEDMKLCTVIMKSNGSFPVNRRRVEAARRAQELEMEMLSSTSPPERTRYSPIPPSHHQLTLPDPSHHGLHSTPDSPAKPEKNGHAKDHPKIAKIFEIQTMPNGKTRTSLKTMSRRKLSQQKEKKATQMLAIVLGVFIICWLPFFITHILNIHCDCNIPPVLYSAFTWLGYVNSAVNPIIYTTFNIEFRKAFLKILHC

SMILES | EC50 [1] [nmol/L] | IC50 [3] [nmol/L] | IC50 [4] [nmol/L] | Effective Dose [2] [mg/kg]
COc1cc2c(cc1OC)[C@@H]1Cc3ccc(OC)c(CNC(C)=O)c3CN1CC2 [Example 23, (S)-2,3,10-trimethoxy-9-acetylaminomethyl-6,8,13,13a-tetrahydro-5H-dibenzo[a,g] quinolizine] | 1900 |  |  | 
COc1cc2c(cc1C(N)=O)[C@@H]1Cc3ccc(C(N)=O)c(OC)c3CN1CC2 [Example 38, (S)-2,10-dicarbamoyl-3,9-dimethoxy-6,8,13,13a-tetrahydro-5H-dibenzo[a,g] quinolizine] | 4580 | 3400 | 620 | 
COc1cc2c(cc1C(C)=O)[C@@H]1Cc3ccc(OC)c(OC)c3CN1CC2 [Example 12, (S)-2-acetyl-3,9,10-trimethoxy-6,8,13,13a-tetrahydro-5H-dibenzo [a,g] quinolizine] | 2300 | 240 | 500 | 
COc1cc2c(cc1OC)[C@@H]1Cc3ccc(OC)c(OCCO)c3CN1CC2 [Example 56, (S)-2,3,10-trimethoxy-9-hydroxyethoxy-6.8,13,13a-tetrahydro-5H-dibenzo[a,g] quinolizine] | 150 | 1050 | 2800 | 20
COc1cc2c(cc1C)[C@@H]1Cc3ccc(OC)c(OC)c3CN1CC2 [Example 1, (S)-2-methyl-3,9,10-trimethoxy-6,8,13,13a-tetrahydro-5H-dibenzo[a,g] quinolizine] |  | 34.9 | 620 | 20
COc1ccc2c(c1OC)CN1CCc3cc(C#N)c(C#N)cc3C1C2 (stereo not drawn) [Example 35, 2,3-dicyano-9,10-dimethoxy-6,8,13,13a-tetrahydro-5H-dibenzo[a,g] quinolizine] | 5900 |  |  | 
COc1ccc2c(c1OC)CN1CCc3cc4c(cc3C1C2)OCC(=O)N4 (stereo not drawn) [Example 47, 10,11-Dimethoxy-4,6,7,9,14,14a-Hexahydroisoquinolino[3,2-a][1,4] oxazino[3,2-g]isoquinoline-3(2H)-one] |  | 19.9 | 146 | 10
COc1cc2c(cc1NC(C)=O)[C@@H]1Cc3ccc(OC)c(OC)c3CN1CC2 [Example 14, (S)-2-acetamido-3,9,10-trimethoxy-6,8,13,13a4tetrahydro-5H-dibenzo[a,g] quinolizine hydrochloride] | 514 |  |  | 10
COc1ccc2c(c1OC)CN1CCc3cc4[nH]c(=O)oc4cc3C1C2 (stereo not drawn) [Example 46, 9,10-Dimethoxy-3,5,6,8,13,13a-Hexahydro-2H-isoquinolino[3,2-a] oxazolo[4,5-g]isoquinolin-2-one] |  | 378 | 184 | 10
COc1cc2c(cc1OC)[C@@H]1Cc3ccc(OC)c(OC4CC4)c3CN1CC2 [Example 57, (S)-2,3,10-trimethoxy-9-cyclopropoxy-6,8,13,13a-tetrahydro-5H-dibenzo[a,g] quinolizine hydrochloride] | 110 |  |  | 20
C=Cc1cc2c(cc1OC)CCN1Cc3c(ccc(OC)c3OC)C[C@@H]21 [Example 17, (S)-2-vinyl-3,9,10-trimethoxy-6,8,13,13a-tetrahydro-5H-dibenzo [a,g] quinolizine] |  | 240 | 150 | 20
COc1cc2c(cc1CNC(C)=O)[C@@H]1Cc3ccc(OC)c(OC)c3CN1CC2 [Example 11, (S)-2-acetaminomethyl-3,9,10-trimethoxy-6,8,13,13a-tetrahydro-5H-dibenzo[a,g] quinolizine] | 1700 | 500 | 750 | 10
COc1cc2c(cc1OC)[C@@H]1Cc3ccc(OC)c(CO)c3CN1CC2 [Example 25, (S)-2,3,10-trimethoxy-9-hydroxymethyl-6,8,13,13a-tetrahydro-5H-dibenzo[a,g] quinolizine] |  | 1700 | 2300 | 20

Continued by falling IC50 [3], values first:

EC50 [1] [nmol/L] | IC50 [3] [nmol/L] | IC50 [4] [nmol/L] | SMILES | Effective Dose [2] [mg/kg]
238 | 1500 |  | COc1cc2c(cc1OC)[C@@H]1Cc3ccc(OC)c(C(C)=O)c3CN1CC2 [Example 21, (S)-2,3,10-trimethoxy-9-acetyl-6,8,13,13a-tetrahydro-5H-dibenzo [a,g] quinolizine] | 20
1200 | 311 | 1000 | COc1cc2c(cc1OC)[C@@H]1Cc3ccc(C#N)c(OC)c3CN1CC2 [Example 27, (S)-2,3,9-trimethoxy-10-cyano-6,8,13,13a-tetrahydro-5H-dibenzo[a,g] quinolizine] | 
 | 270 | 440 | COc1cc2c(cc1N)[C@@H]1Cc3ccc(N)c(OC)c3CN1CC2 [Example 33, (S)-2,10-diamino-3,9-dimethoxy-6,8,13,13a-tetrahydro-5H-dibenzo [a,g] quinolizine] | 20
3030 | 211 | 19 | COc1cc2c(cc1C#N)[C@@H]1Cc3ccc(C#N)c(OC)c3CN1CC2 [Example 37, (S)-2,10-dicyano-3,9-dimethoxy-6,8,13,13a-tetrahydro-5H-dibenzo [a,g] quinolizine] | 
450 | 170 | 35 | COc1cc2c(cc1C(N)=O)[C@@H]1Cc3ccc(OC)c(OC)c3CN1CC2 [Example 5, (S)-2-carbamoyl-3,9,10-trimethoxy-6,8,13,13a-tetrahydro-5H-dibenzo [a,g] quinolizine] | 10
 | 140 | 280 | COc1cc2c(cc1N)[C@@H]1Cc3ccc(OC)c(OC)c3CN1CC2 [Example 13, (S)-2-amino-3,9,10-trimethoxy-6,8,13,13a-tetrahydro-5H-dibenzo [a,g] quinolizine hydrochloride] | 10
 | 61 | 770 | COc1cc2c(cc1CO)[C@@H]1Cc3ccc(OC)c(OC)c3CN1CC2 [Example 7, (S)-2-hydroxymethyl-3,9,10-trimethoxy-6,8,13,13a-tetrahydro-5H-dibenzo[a,g] quinolizine] | 10
